This note sets out measurements from US20130197002A1, “B[…] TREATING VISUAL DISORDERS MEDIATED BY CENTRAL VISUAL P[…] THE EYE” (ALLERGAN, INC., priority 2012, published 2013).

The structures appear in SMILES notation.

The subject of this experiment is rat visual cortex slices. The experiment can be described thus: Long-term potentiation (LTP) in visual cortex slice. Type of experiment: cell-based. The method, then:
Long-Term Potentiation in Visual Cortex Slice
Following decapitation of the anesthetized rat, the brain was rapidly removed and immersed in ice-cold artificial cerebrospinal fluid (ACSF) containing (in mM) NaCl 124, KCl 3, KH2PO4 1.25, CaCl2 3.4, MgSO4 2.5, NaHCO3 26, and D-glucose 10. A block of visual cortex was created by removing the frontal ⅔ portion of the brain and the cerebellum. Coronal visual cortex slices of 350 μm thick were prepared from young adult (200-300 g) male Sprague-Dawley rats using a vibratome (VT 1000 S; Leica). The slices were maintained in an interface recording chamber perfused with preheated ACSF. Slices were continuously perfused with this solution at a rate of 1.00-1.50 ml/min while the surface of the slices was exposed to warm, humidified 95% O2/5% CO2 and maintained at 31±1° C. Visual cortex slices were allowed to recover for 1 hr before recording began. A single stimulating and recording electrode was placed in layer IV and III, respectively, to generate and record field excitatory postsynaptic potentials (fEPSPs). Pulses were administered at 0.05 Hz using a current that produced a fEPSP that is 50% of the maximum spike free response. An input-output (IO) curve is done to determine the stimulation needed to achieve a stable baseline. Following a 15 min stable baseline recording period, a train of 5 theta bursts (each burst containing four pulses at 100 Hz with an inter-burst interval of 200 ms) is delivered to the slice. This is repeated 2 additional times with a 1 minute inter-train interval, and the level of LTP was recorded for at least 30 min. Changes in amplitude of the synaptic response were used to measure the extent of LTP, since the amplitude was determined to be the more consistent parameter than the slope of the response. Control LTP values were obtained from slices not treated with drug. Different slices were used to study drug effects on LTP. Brimonidine was infused after 15 min baseline recording for duration of 20 minutes followed by LTP induction. […] LTP was recorded for at least 30 min after induction.

As for `Brc1c(N=C2NCCN2)ccc2nccnc12` [brimonidine, (5-bromo-quinoxalin-6-yl)-imidazolidin-2-ylidene-amine], the “effect on LTP” value (brimonidine administered to visual cortex slices, FIG. 1 left panel) is “marked and dose-dependent enhancement of LTP”. Moreover, under “visual cortex slices, FIG. 1 left panel”, the “threshold dose for enhancement of LTP” value turned out to be 3 nM.
Consider `CCC1(c2cnc[nH]2)Cc2ccccc2C1` [atipamezole], for which the “brimonidine-induced enhancement of LTP in presence of alpha 2 pan antagonist” value (atipamezole plus brimonidine, FIG. 1 right panel) is “fully suppressed”.
